From patent US20220193025A1, “USE OF DIANHYDROHEXITOL TO ELIMINATE THE COSMETIC EFFECTS OF ACNE, DANDRUFF AND BAD ODORS” (ROQUETTE FRERES, priority 2019, published 2022)

Key:
[1] = system: Propionobacterium acnes strain; experiment: Example 1: microbial population count over 28 days after contamination (microtiter method, TTC); type: cell-based; conditions: for Number of colony forming strains after: 24 h / Number of colony forming strains after: 7 days / Number of colony forming strains after: 14 days / Number of colony forming strains after: 21 days / Number of colony forming strains after: 28 days: 22° C.
Description: The samples are prepared under sterile conditions and deposited in microplates (2-ml wells) with the concentrations hereunder. Two analysis controls were produced: a positive control corresponding to 0.5% Phenonip®; a negative control consisting of 0.85% physiological saline solution. Samples and controls are contaminated by a Propionobacterium acnes bacterial strain with around 1.43×10^5 to 4.15×10^5 colony forming units per milliliter, denoted cfu/ml. After contamination, the samples are carefully mixed by suction-discharge cycles in order to ensure a uniform distribution of the microorganism. The whole is incubated at 22° C. during 28 days. The microbial population is sampled and counted at 24 hours, 7, 14, 21 and 28 days for the Propionobacterium acnes bacterial strain. The contaminated samples are collected and then deposited in serial dilutions in microtiter plates, in the presence of culture medium, which is a saline solution with 0.85% sodium chloride, and a dehydrogenase activity indicator reagent, which is 2,3,5-triphenyltetrazolium chloride (denoted TTC). The results are presented in the following pages with the variation of the microbial population over the 28 days of study, for the tested microbial strain. The measurements of microbial populations in the samples collected at each time, are carried out according to the following microtiter method, for one sample collection. In the 96 wells with a volume of 250 μL of a microtiter plate, 20 μL of the collected sample are diluted by a factor of 10 by dispersion in 180 μL of Letheen broth (Difco, ref. 268110) containing 1.5% of Tween 80 (Sigma, ref. […]) and TTC (Sigma, ref. […]). The microplate is incubated for 48 hours at 32.5° C., and the growth of the microorganisms is monitored by the color change, from colorless to red/pink. The highest reciprocal dilution indicating a growth makes it possible to determine the log number of each microorganism at each time. The measurements of microbial populations taken at each collection time are expressed as colony forming units/ml.

Aspergillus brasiliensis = conditions: U.S. Pat. No. 9,295,626, table 2; cited from earlier work
[2] = system: Staphylococcus epidermidis strain; experiment: Example 3: microbial population count over 28 days after contamination (microtiter method, TTC); type: cell-based; conditions: for Number of colony forming strains after: 24 h / Number of colony forming strains after: 7 days / Number of colony forming strains after: 14 days / Number of colony forming strains after: 21 days / Number of colony forming strains after: 28 days: 22° C.
Description: (§1) The samples are prepared under sterile conditions and deposited in microplates (2-ml wells) with the concentrations hereunder. Two analysis controls were produced: a positive control corresponding to 0.5% Phenonip®; a negative control consisting of 0.85% physiological saline solution. Samples and controls are contaminated by three bacterial strains, Staphylococcus epidermidis, Corynebacterium xerosis and Propionobacterium acnes, with around 1.43×10^5 to 4.15×10^5 colony forming units per milliliter, denoted cfu/ml. After contamination, the samples are carefully mixed by suction-discharge cycles in order to ensure a uniform distribution of the microorganism. The whole is incubated at 22° C. during 28 days. The microbial population is sampled and counted at 24 hours, 7, 14, 21 and 28 days for each bacterial strain. The contaminated samples are collected and then deposited in serial dilutions in microtiter plates, in the presence of culture medium, which is a saline solution with 0.85% sodium chloride, and a dehydrogenase activity indicator reagent, which is 2,3,5-triphenyltetrazolium chloride (denoted TTC). The results are presented in the following pages with the variation of the microbial population over the 28 days of study, for the tested microbial strain. The measurements of microbial populations in the samples collected at each time, are carried out according to the following microtiter method, for one sample collection. In the 96 wells with a volume of 250 μL of a microtiter plate, 20 μL of the collected sample are diluted by a factor of 10 by dispersion in 180 μL of Letheen broth (Difco, ref. 268110) containing 1.5% of Tween 80 (Sigma, ref. […]) and TTC (Sigma, ref. […]). The microplate is incubated for 48 hours at 32.5° C., and the growth of the microorganisms is monitored by the color change, from colorless to red/pink. The highest reciprocal dilution indicating a growth makes it possible to determine the log number of each microorganism at each time. The measurements of microbial populations taken at each collection time are expressed as colony forming units/ml.

[3] = system: Propionobacterium acnes strain; experiment: as above; type: cell-based; conditions: for Number of colony forming strains after: 24 h / Number of colony forming strains after: 7 days / Number of colony forming strains after: 14 days / Number of colony forming strains after: 21 days / Number of colony forming strains after: 28 days: 22° C.
Description: as §1

Staphylococcus aureus = conditions: U.S. Pat. No. 9,295,626, table 2; cited from earlier work

O[C@@H]1CO[C@H]2[C@@H]1OC[C@@H]2O [isosorbide, 1,4-3,6-dianhydrosorbitol]
no colony forming strain is observed: colony forming strain observed ([1]; after 24 hours, Example 1) | colony forming strain observed ([3]; after 24 hours, Example 3)
at least 2 log 10: reduction of the number of colony forming strains ([2]; after 24 hours, for the three doses tested)
1 × 10^3 colony forming units/ml: Number of colony forming strains after: 24 h ([2]; dose 5%)
weak bactericide: bactericidal effect (conclusion in words) [2]
10%: minimum inhibitory concentration (Aspergillus brasiliensis) | minimum inhibitory concentration (Staphylococcus aureus)
4 × 10^3 colony forming units/ml: Number of colony forming strains after: 24 h ([2]; dose 1%)
7 × 10^2 colony forming units/ml: Number of colony forming strains after: 24 h ([2]; dose 9%)
not any colony forming strain: colony forming strain observed ([2]; after 7 days)
0 colony forming units/ml: Number of colony forming strains after: 24 h ([1]; dose 1%) | Number of colony forming strains after: 7 days ([1]; dose 1%) | Number of colony forming strains after: 14 days ([1]; dose 1%) | Number of colony forming strains after: 21 days ([1]; dose 1%) | Number of colony forming strains after: 28 days ([1]; dose 1%) | Number of colony forming strains after: 24 h ([1]; dose 5%) | Number of colony forming strains after: 7 days ([1]; dose 5%) | Number of colony forming strains after: 14 days ([1]; dose 5%) | Number of colony forming strains after: 21 days ([1]; dose 5%) | Number of colony forming strains after: 28 days ([1]; dose 5%) | Number of colony forming strains after: 24 h ([1]; dose 9%) | Number of colony forming strains after: 7 days ([1]; dose 9%) | Number of colony forming strains after: 14 days ([1]; dose 9%) | Number of colony forming strains after: 21 days ([1]; dose 9%) | Number of colony forming strains after: 28 days ([1]; dose 9%) | Number of colony forming strains after: 7 days ([2]; dose 1%) | Number of colony forming strains after: 14 days ([2]; dose 1%) | Number of colony forming strains after: 21 days ([2]; dose 1%) | Number of colony forming strains after: 28 days ([2]; dose 1%) | Number of colony forming strains after: 7 days ([2]; dose 5%) | Number of colony forming strains after: 14 days ([2]; dose 5%) | Number of colony forming strains after: 21 days ([2]; dose 5%) | Number of colony forming strains after: 28 days ([2]; dose 5%) | Number of colony forming strains after: 7 days ([2]; dose 9%) | Number of colony forming strains after: 14 days ([2]; dose 9%) | Number of colony forming strains after: 21 days ([2]; dose 9%) | Number of colony forming strains after: 28 days ([2]; dose 9%) | Number of colony forming strains after: 24 h ([3]; dose 1%) | Number of colony forming strains after: 7 days ([3]; dose 1%) | Number of colony forming strains after: 14 days ([3]; dose 1%) | Number of colony forming strains after: 21 days ([3]; dose 1%) | Number of colony forming strains after: 28 days ([3]; dose 1%) | Number of colony forming strains after: 24 h ([3]; dose 5%) | Number of colony forming strains after: 7 days ([3]; dose 5%) | Number of colony forming strains after: 14 days ([3]; dose 5%) | Number of colony forming strains after: 21 days ([3]; dose 5%) | Number of colony forming strains after: 28 days ([3]; dose 5%) | Number of colony forming strains after: 24 h ([3]; dose 9%) | Number of colony forming strains after: 7 days ([3]; dose 9%) | Number of colony forming strains after: 14 days ([3]; dose 9%) | Number of colony forming strains after: 21 days ([3]; dose 9%) | Number of colony forming strains after: 28 days ([3]; dose 9%)
bactericide: bactericidal effect (conclusion in words) ([1]; Example 1) | bactericidal effect (conclusion in words) ([3]; Example 3)
